Entries after “also recorded” stand apart in the source; their conditions may differ.
System: bone marrow derived macrophages (BMDMs)
Assay: LPS-induced IL-1β secretion in BMDMs treated with IKK2 inhibitors (ELISA)
Type: cell-based, mouse
Description: Bone marrow was isolated from the tibiae and femurs of one WT and one Ripk1^D138N/D138N mouse (6-7 week old). Bone marrow from one leg of each mouse was immediately frozen Bone marrow cells from the other leg were spun down at 1200 rpm, for 5 min and seeded in 15 cm^2 non-treated cell culture plates in 20 ml of medium containing 10 ng/ml M-CSF. Cells were allowed to differentiate for six days and subsequently adherent BMDMs were lifted, counted and seeded at a density of 2×10^5 cells/well in a 48 well plate. The day after, cells were pretreated with different concentrations of the IKK2 inhibitors for 30 min before stimulation with 100 ng/ml LPS in a total volume of 250 μl. Each experimental condition was assayed in triplicate. 20-24 h later supernatants were removed, cleared from floating cells and were frozen until cytokine measurements. IL-1β concentration was determined with a specific ELISA (eBioscience) following the manufacturer's instructions.
For the experiment with Nec1 the frozen bone marrow cells were used. After thawing, macrophages were differentiated as described above for fresh bone marrow cells. Necrostatin-1 (Nec-1) was added together with the IKK2 inhibitors during the 30 min pretreatment BMDMs were stimulated with LPS for 20-24 h and supernatants were kept for ELISA measurements. […]

| Structure (SMILES) | amount of secreted IL-1β (LPS-induced, in BMDMs treated with IKK2 inhibitors) (Nec1 added together with IKK2 inhibitors during 30 min pretreatment, 100 ng/ml LPS for 20-24 h, FIG. 1B) | IL-1β secretion upon LPS stimulation (WT BMDMs pretreated 30 min with IKK2 inhibitor, then 100 ng/ml LPS for 20-24 h, IL-1β ELISA of supernatant) |
| --- | --- | --- |
| CN1C(=O)C(Cc2c[nH]c3ccccc23)NC1=S (centres unmarked) [Necrostatin-1, 5-(1H-indo1-3-ylmethyl)-3-methyl-2-thioxo-4-imidazolidinone] | strongly diminished the LPS-induced production of IL-1β; also recorded: strongly reduced the amount of secreted IL-1β |  |
| NC(=O)Nc1sc(-c2ccc(F)cc2)cc1C(N)=O [TPCA-1] |  | greater potency |
